Source: US20230093099A1, “COMPOUNDS AND METHODS OF TREATING CANCERS” (CULLGEN (SHANGHAI), INC., priority 2019, published 2023)
pIC50: −log10 of the molar value.

These molecules were tested on RS4;11 cells (assay: Cell viability assay (CellTiter-Glo) in RS4;11 cells). Settings: Homo sapiens, 72 h; RS4;11 ALL cells treated for three days; read-out: cell viability inhibition IC50.
Assay type: cell-based
In short: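 RS4;11 cells seeded at 5000 per well, exposed for 3 days to 8- or 12-point 3-fold serial dilutions. Viability read by CellTiter-Glo luminescence; IC50 fitted by nonlinear least-squares regression.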

| pIC50 | Structure (SMILES) |
| --- | --- |
| > 7.00 | CS(=O)(=O)c1ccc(-c2cccc3nc(Nc4ccc(N5CCN(C(=O)CCNc6ccc7c(c6)C(=O)N(C6CCC(=O)NC6=O)C7=O)CC5)cc4)nn23)cc1 (centres unmarked) [JA-202] |

Same assay, conditions: Homo sapiens, 72 h; RS4;11 cells; cell viability, 3 days, CellTiter-Glo; read-out: IC50

| Structure (SMILES) | pIC50 |
| --- | --- |
| Cc1cnc(Nc2ccc(N3CCN(C(=O)CCOCCOCCOCCNc4cccc5c4C(=O)N(C4CCC(=O)NC4=O)C5=O)CC3)cc2)nc1Nc1cccc(S(=O)(=O)NC(C)(C)C)c1 (centres unmarked) [JA-019, N-(tert-Butyl)-3-((2-((4-(4-(3-(2-(2-(2-((2-(2,6-dioxopiperidin-3-yl)-1,3-dioxoisoindolin-4-yl)amino)ethoxy)ethoxy)ethoxy)propanoyl)piperazin-1-yl)phenyl)amino)-5-methylpyrimidin-4-yl)amino)benzenesulfonamide] | 6.45 |
| Cc1ncsc1-c1ccc(CNC(=O)[C@@H]2C[C@@H](O)CN2C(=O)[C@@H](NC(=O)CCCCCCCCCCNC(=O)CN2CCN(c3ccc(Nc4nc5cccc(-c6ccc(S(C)(=O)=O)cc6)n5n4)cc3)CC2)C(C)(C)C)cc1 [JA-128, (2S,4R)-1-((S)-3,3-Dimethyl-2-(11-(2-(4-(4-((5-(4-(methylsulfonyl)phenyl)-[1,2,4]triazolo[1,5-a]pyridin-2-yl)amino)phenyl)piperazin-1-yl)acetamido)undecanamido)butanoyl)-4-hydroxy-N-(4-(4-methylthiazol-5-yl)benzyl)pyrrolidine-2-carboxamide] | < 5.00 |
| Cc1cnc(Nc2ccc(N3CCN(C(=O)COCCOCCOCC(=O)N[C@H](C(=O)N4C[C@H](O)C[C@H]4C(=O)NCc4ccc(-c5scnc5C)cc4)C(C)(C)C)CC3)cc2)nc1Nc1cccc(S(=O)(=O)NC(C)(C)C)c1 [JA-108, (2S,4R)-1-((S)-2-(tert-Butyl)-14-(4-(4-((4-((3-(N-(tert-butyl)sulfamoyl)phenyl)amino)-5-methylpyrimidin-2-yl)amino)phenyl)piperazin-1-yl)-4,14-dioxo-6,9,12-trioxa-3-azatetradecanoyl)-4-hydroxy-N-(4-(4-methylthiazol-5-yl)benzyl)pyrrolidine-2-carboxamide] | < 5.00 |
| Cc1cnc(Nc2ccc(N3CCN(C(=O)CNc4cccc5c4C(=O)N(C4CCC(=O)NC4=O)C5=O)CC3)cc2)nc1Nc1cccc(S(=O)(=O)NC(C)(C)C)c1 (centres unmarked) [JA-006, N-(tert-Butyl)-3-((2-((4-(4-((2-(2,6-dioxopiperidin-3-yl)-1,3-dioxoisoindolin-4-yl)glycyl)piperazin-1-yl)phenyl)amino)-5-methylpyrimidin-4-yl)amino)benzenesulfonamide] | < 5.00 |
| Cc1cnc(Nc2ccc(N3CCN(CC(=O)NCCCCNc4cccc5c4C(=O)N(C4CCC(=O)NC4=O)C5=O)CC3)cc2)nc1Nc1cccc(S(=O)(=O)NC(C)(C)C)c1 (centres unmarked) [JA-092, 2-(4-(4-((4-((3-(N-(tert-Butyl)sulfamoyl)phenyl)amino)-5-methylpyrimidin-2-yl)amino)phenyl)piperazin-1-yl)-N-(4-((2-(2,6-dioxopiperidin-3-yl)-1,3-dioxoisoindolin-4-yl)amino)butyl)acetamide] | 5.55 |
| Cc1cnc(Nc2ccc(N3CCN(CC(=O)NCCOCCOCCOCCNc4cccc5c4C(=O)N(C4CCC(=O)NC4=O)C5=O)CC3)cc2)nc1Nc1cccc(S(=O)(=O)NC(C)(C)C)c1 (centres unmarked) [JA-088, 2-(4-(4-((4-((3-(N-(tert-Butyl)sulfamoyl)phenyl)amino)-5-methylpyrimidin-2-yl)amino)phenyl)piperazin-1-yl)-N-(2-(2-(2-(2-((2-(2,6-dioxopiperidin-3-yl)-1,3-dioxoisoindolin-4-yl)amino)ethoxy)ethoxy)ethoxy)ethyl)acetamide] | 6.43 |
| Cc1ncsc1-c1ccc(CNC(=O)[C@@H]2C[C@@H](O)CN2C(=O)[C@@H](NC(=O)CCCCCCCCCCNC(=O)CN2CCC(n3cc(-c4cnc5cccc(-c6cc(F)c(CN7CCOCC7)c(F)c6)c5n4)cn3)CC2)C(C)(C)C)cc1 [JA-150, (2S,4R)-1-((S)-2-(11-(2-(4-(4-(8-(3,5-Difluoro-4-(morpholinomethyl)phenyl)quinoxalin-2-yl)-1H-pyrazol-1-yl)piperidin-1-yl)acetamido)undecanamido)-3,3-dimethylbutanoyl)-4-hydroxy-N-(4-(4-methylthiazol-5-yl)benzyl)pyrrolidine-2-carboxamide] | 5.65 |
| Cc1cnc(Nc2ccc(N3CCN(C(=O)CCCCCNc4cccc5c4C(=O)N(C4CCC(=O)NC4=O)C5=O)CC3)cc2)nc1Nc1cccc(S(=O)(=O)NC(C)(C)C)c1 (centres unmarked) [JA-007, N-(tert-Butyl)-3-((2-((4-(4-(6-((2-(2,6-dioxopiperidin-3-yl)-1,3-dioxoisoindolin-4-yl)amino)hexanoyl)piperazin-1-yl)phenyl)amino)-5-methylpyrimidin-4-yl)amino)benzenesulfonamide] | < 5.00 |
| Cc1ncsc1-c1ccc(CNC(=O)[C@@H]2C[C@@H](O)CN2C(=O)[C@@H](NC(=O)CCCCCCCC(=O)N2CCN(c3ccc(Nc4nc5cccc(-c6ccc(S(C)(=O)=O)cc6)n5n4)cc3)CC2)C(C)(C)C)cc1 [JA-065, (2S,4R)-1-((S)-3,3-Dimethyl-2-(9-(4-(4-((5-(4-(methylsulfonyl)phenyl)-[1,2,4]triazolo[1,5-a]pyridin-2-yl)amino)phenyl)piperazin-1-yl)-9-oxononanamido)butanoyl)-4-hydroxy-N-(4-(4-methylthiazol-5-yl)benzyl)pyrrolidine-2-carboxamide] | 6.06 |
| Cc1cnc(Nc2ccc(N3CCN(CC(=O)NCCCNc4cccc5c4C(=O)N(C4CCC(=O)NC4=O)C5=O)CC3)cc2)nc1Nc1cccc(S(=O)(=O)NC(C)(C)C)c1 (centres unmarked) [JA-091, 2-(4-(4-((4-((3-(N-(tert-Butyl)sulfamoyl)phenyl)amino)-5-methylpyrimidin-2-yl)amino)phenyl)piperazin-1-yl)-N-(3-((2-(2,6-dioxopiperidin-3-yl)-1,3-dioxoisoindolin-4-yl)amino)propyl)acetamide] | 5.53 |
| Cc1ncsc1-c1ccc(CNC(=O)[C@@H]2C[C@@H](O)CN2C(=O)[C@@H](NC(=O)CCOCCOCCOCCOCCOCCC(=O)N2CCN(c3ccc(Nc4nc5cccc(-c6ccc(S(C)(=O)=O)cc6)n5n4)cc3)CC2)C(C)(C)C)cc1 [JA-071, (2S,4R)-1-((S)-2-(tert-Butyl)-22-(4-(4-((5-(4-(methylsulfonyl)phenyl)-[1,2,4]triazolo[1,5-a]pyridin-2-yl)amino)phenyl)piperazin-1-yl)-4,22-dioxo-7,10,13,16,19-pentaoxa-3-azadocosanoyl)-4-hydroxy-N-(4-(4-methylthiazol-5-yl)benzyl)pyrrolidine-2-carboxamide] | 6.02 |

More lines, now with the values ahead:

| pIC50 | Structure (SMILES) |
| --- | --- |
| < 6.30 | Cn1c(=O)n(C2CCC(=O)NC2=O)c2cccc(NCCCCCCC(=O)N3CCN(c4ccc(Nc5nc6cccc(-c7ccc(S(C)(=O)=O)cc7)n6n5)cc4)CC3)c21 (centres unmarked) [JA-285, 3-(3-Methyl-4-((7-(4-(4-((5-(4-(methylsulfonyl)phenyl)-[1,2,4]triazolo[1,5-a]pyridin-2-yl)amino)phenyl)piperazin-1-yl)-7-oxoheptyl)amino)-2-oxo-2,3-dihydro-1H-benzo[d]imidazol-1-yl)piperidine-2,6-dione] |
| 8.44 | O=C1CCC(N2Cc3cc(OCCCCCC(=O)N4CCC(n5cc(-c6cnc7cccc(-c8cc(F)c(CN9CCOCC9)c(F)c8)c7n6)cn5)CC4)ccc3C2=O)C(=O)N1 (centres unmarked) [JA-263, 3-(5-((6-(4-(4-(8-(3,5-difluoro-4-(morpholinomethyl)phenyl)quinoxalin-2-yl)-1H-pyrazol-1-yl)piperidin-1-yl)-6-oxohexyl)oxy)-1-oxoisoindolin-2-yl)piperidine-2,6-dione] |
| < 6.30 | Cn1c(=O)n(C2CCC(=O)NC2=O)c2ccc(NCCCCCC(=O)N3CCN(c4ccc(Nc5nc6cccc(-c7ccc(S(C)(=O)=O)cc7)n6n5)cc4)CC3)cc21 (centres unmarked) [JA-292, 3-(3-Methyl-5-((6-(4-(4-((5-(4-(methylsulfonyl)phenyl)-[1,2,4]triazolo[1,5-a]pyridin-2-yl)amino)phenyl)piperazin-1-yl)-6-oxohexyl)amino)-2-oxo-2,3-dihydro-1H-benzo[d]imidazol-1-yl)piperidine-2,6-dione] |
| < 5.00 | CS(=O)(=O)c1ccc(-c2cccc3nc(Nc4ccc(N5CCN(CC(=O)NCCOCCOCCOCCNc6ccc7c(c6)C(=O)N(C6CCC(=O)NC6=O)C7=O)CC5)cc4)nn23)cc1 (centres unmarked) [JA-209, N-(2-(2-(2-(2-((2-(2,6-Dioxopiperidin-3-yl)-1,3-dioxoisoindolin-5-yl)amino)ethoxy)ethoxy)ethoxy)ethyl)-2-(4-(4-((5-(4-(methylsulfonyl)phenyl)-[1,2,4]triazolo[1,5-a]pyridin-2-yl)amino)phenyl)piperazin-1-yl)acetamide] |
| 6.97 | CS(=O)(=O)c1ccc(-c2cccc3nc(Nc4ccc(N5CCN(C(=O)CCNc6ccc7c(c6)C(=O)N(C6CCC(=O)NC6=O)C7=O)CC5)cc4)nn23)cc1 (centres unmarked) [JA-202] |
| < 5.00 | Cc1ncsc1-c1ccc(CNC(=O)[C@@H]2C[C@@H](O)CN2C(=O)[C@@H](NC(=O)CCOCCOCCNC(=O)CN2CCC(n3cc(-c4cnc5cccc(-c6cc(F)c(CN7CCOCC7)c(F)c6)c5n4)cn3)CC2)C(C)(C)C)cc1 [JA-162, (2S,4R)-1-((S)-14-(tert-Butyl)-1-(4-(4-(8-(3,5-difluoro-4-(morpholinomethyl)phenyl)quinoxalin-2-yl)-1H-pyrazol-1-yl)piperidin-1-yl)-2,12-dioxo-6,9-dioxa-3,13-diazapentadecan-15-oyl)-4-hydroxy-N-(4-(4-methylthiazol-5-yl)benzyl)pyrrolidine-2-carboxamide] |
| < 6.30 | Cn1c(=O)n(C2CCC(=O)NC2=O)c2ccc(NCCCCCC(=O)N3CCC(n4cc(-c5cnc6cccc(-c7cc(F)c(CN8CCOCC8)c(F)c7)c6n5)cn4)CC3)cc21 (centres unmarked) [JA-288, 3-(5-((6-(4-(4-(8-(3,5-Difluoro-4-(morpholinomethyl)phenyl)quinoxalin-2-yl)-1H-pyrazol-1-yl)piperidin-1-yl)-6-oxohexyl)amino)-3-methyl-2-oxo-2,3-dihydro-1H-benzo[d]imidazol-1-yl)piperidine-2,6-dione] |
| < 6.30 | CS(=O)(=O)c1ccc(-c2cccc3nc(Nc4ccc(N5CCN(C(=O)CCCCCn6c(=O)n(C7CCC(=O)NC7=O)c7ccccc76)CC5)cc4)nn23)cc1 (centres unmarked) [JA-280, 3-(3-(6-(4-(4-((5-(4-(Methylsulfonyl)phenyl)-[1,2,4]triazolo[1,5-a]pyridin-2-yl)amino)phenyl)piperazin-1-yl)-6-oxohexyl)-2-oxo-2,3-dihydro-1H-benzo[d]imidazol-1-yl)piperidine-2,6-dione] |
